Patent publication US9758561B2 (priority 2014, dated 2017)
≈ marks a conversion by molar mass, not a printed value. Read-outs that look alike come from different tables or passages of the source.

What was measured:
[1] = target: T1, human GLP-1 receptor (Homo sapiens, UniProt P43220); assay: cAMP response of HEK-293 cells stably expressing human GLP-1 receptor (HTRF); assay type: cell-based; conditions: Table 6; read-out: EC50 hGLP-1R
T1 construct: expressed in transfected cells; host or cells: HEK-293
T1 sequence (P43220 24-463): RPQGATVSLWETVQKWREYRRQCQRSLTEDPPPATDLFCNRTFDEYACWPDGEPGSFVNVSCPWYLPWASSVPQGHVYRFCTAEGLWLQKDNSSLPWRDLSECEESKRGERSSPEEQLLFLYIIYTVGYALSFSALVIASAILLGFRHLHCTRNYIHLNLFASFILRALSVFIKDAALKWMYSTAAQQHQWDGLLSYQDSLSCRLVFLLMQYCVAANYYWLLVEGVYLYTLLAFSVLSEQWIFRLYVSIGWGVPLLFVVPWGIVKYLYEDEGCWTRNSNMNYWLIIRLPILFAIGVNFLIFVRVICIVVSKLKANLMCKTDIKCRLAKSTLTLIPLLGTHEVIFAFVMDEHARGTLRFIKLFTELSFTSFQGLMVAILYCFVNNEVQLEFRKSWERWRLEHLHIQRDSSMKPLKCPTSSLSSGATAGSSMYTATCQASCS
In short: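 HEK-293 cells stably expressing the receptor were taken up in HBSS/20 mM HEPES/0.1% BSA with 2 mM IBMX at 400000 cells/ml. They were exposed to increasing concentrations of peptide for 30 minutes at room temperature, and formed cAMP was measured by HTRF.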

[2] = target: T2, human glucagon receptor (Homo sapiens, UniProt P47871); assay: cAMP response of HEK-293 cells stably expressing human glucagon receptor (HTRF); assay type: cell-based; conditions: read-out: EC50 hGlucagon-R
T2 construct: expressed in transfected cells; host or cells: HEK-293
T2 sequence (P47871 26-477): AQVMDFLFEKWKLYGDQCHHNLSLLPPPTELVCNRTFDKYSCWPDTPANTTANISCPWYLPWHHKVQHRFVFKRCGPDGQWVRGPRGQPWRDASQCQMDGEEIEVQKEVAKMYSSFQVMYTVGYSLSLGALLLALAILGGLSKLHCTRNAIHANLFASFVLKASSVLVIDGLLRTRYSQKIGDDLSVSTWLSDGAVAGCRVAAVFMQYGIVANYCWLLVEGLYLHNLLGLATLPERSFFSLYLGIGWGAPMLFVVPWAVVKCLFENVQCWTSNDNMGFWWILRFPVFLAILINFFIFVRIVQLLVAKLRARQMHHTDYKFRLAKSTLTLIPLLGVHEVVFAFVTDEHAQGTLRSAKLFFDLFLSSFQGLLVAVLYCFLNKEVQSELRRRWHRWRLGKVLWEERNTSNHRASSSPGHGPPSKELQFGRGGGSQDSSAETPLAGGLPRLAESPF
Method: (§1) For preparation, cells were split into T175 culture flasks and grown overnight to near confluency in medium (DMEM/10% FBS). Medium was then removed and cells washed with PBS lacking calcium and magnesium, followed by proteinase treatment with accutase (Sigma-Aldrich cat. no. A6964). Detached cells were washed and resuspended in assay buffer (1×HBSS; 20 mM HEPES, 0.1% BSA, 2 mM IBMX) and cellular density determined. They were then diluted to 400000 cells/ml and 25 μl-aliquots dispensed into the wells of 96-well plates. For measurement, 25 μl of test compound in assay buffer was added to the wells, followed by incubation for 30 minutes at room temperature. […] Potencies of peptidic compounds at the GLP-1, glucagon and GIP receptors were determined by exposing cells expressing human glucagon receptor (hGlucagon R), human GIP receptor (hGIP-R) or human GLP-1 receptor (hGLP-1R) to the listed compounds at increasing concentrations and measuring the formed cAMP as described in Methods.

[3] = target: T3, human GIP receptor (Homo sapiens, UniProt P48546); assay: cAMP response of HEK-293 cells stably expressing human GIP receptor (HTRF); assay type: cell-based; conditions: Table 6; read-out: EC50 hGIP-R
T3 construct: expressed in transfected cells; host or cells: HEK-293
T3 sequence (P48546 22-466): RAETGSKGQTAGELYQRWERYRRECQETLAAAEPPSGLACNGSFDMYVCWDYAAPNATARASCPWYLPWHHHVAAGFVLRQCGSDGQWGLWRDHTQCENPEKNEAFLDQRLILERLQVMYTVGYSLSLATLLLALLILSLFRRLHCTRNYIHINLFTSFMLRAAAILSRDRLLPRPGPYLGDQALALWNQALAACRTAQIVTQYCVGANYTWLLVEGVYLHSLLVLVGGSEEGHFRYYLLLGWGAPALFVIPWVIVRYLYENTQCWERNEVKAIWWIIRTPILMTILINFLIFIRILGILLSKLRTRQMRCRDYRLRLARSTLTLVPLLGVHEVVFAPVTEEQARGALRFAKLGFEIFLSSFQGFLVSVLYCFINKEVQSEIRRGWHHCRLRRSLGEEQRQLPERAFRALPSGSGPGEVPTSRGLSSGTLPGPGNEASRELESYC
Method: as §1

[4] = Stability testing in solution, 7 days at 40° C. (HPLC-UV); assay type: physicochemical
Method: After that time course, the sample was centrifuged for 20 min at 4500 rpm and 0.2 μL of the supernatant were analysed with HPLC-UV.
For determination of the amount of the remaining peptide, the peak areas of the target compound at t0 and t7 were compared, resulting in “% remaining peptide”, following the equation % remaining peptide=[(peak area peptide t7)×100]/peak area peptide t0.
The stability is expressed as “% remaining peptide”.

[5] = Solubility testing in buffer (HPLC-UV); assay type: physicochemical
Method: Prior to the testing of solubility and stability of a peptide batch, its purity (HPLC-UV) was determined. […] Therefore, solutions from solid samples were prepared in different buffer systems with a concentration of 10 mg/mL compound based on the previously determined % purity. HPLC-UV was performed after 2 h of gentle agitation from the supernatant, which was obtained by 20 min of centrifugation at 4500 rpm. […] This analysis also served as starting point (t0) for the stability testing.

Structure (SMILES)	EC50 [1] [pM]	EC50 ([2]; Table 6) [pM]	EC50 [3] [pM]	Stability pH 4.5 ([4]; pH 4.5, 7 days at 40° C. in solution) [% remaining peptide]	Stability pH 7.4 ([4]; pH 7.4, 7 days at 40° C. in solution) [% remaining peptide]	solubility at 2 h ([5]; pH 4.5, target concentration 10 mg/ml, read-out: solubility pH 4.5) [µg/mL]	solubility at 2 h ([5]; pH 7.4, target concentration 10 mg/ml, read-out: solubility pH 7.4) [µg/mL]	EC50 ([2]; Table 8, comparison Aib vs. Lys in position 27) [pM]
CCCCCCCCCCCCCCCC(=O)N[C@@H](CCC(=O)N[C@@H](CCC(=O)NCCCC[C@H](NC(=O)[C@H](CCC(N)=O)NC(=O)[C@H](CCCCN)NC(=O)[C@H](CO)NC(=O)[C@H](CC(C)C)NC(=O)[C@H](CC(=O)O)NC(=O)[C@H](CO)NC(=O)[C@@H](NC(=O)[C@H](Cc1ccccc1)NC(=O)[C@@H](NC(=O)CNC(=O)[C@H](CCC(N)=O)NC(=O)[C@H](CO)NC(=O)[C@@H](N)Cc1c[nH]cn1)[C@@H](C)O)[C@@H](C)O)C(=O)N[C@@H](CC(=O)O)C(=O)N[C@@H](CCC(=O)O)C(=O)N[C@@H](CCC(=O)O)C(=O)N[C@@H](C)C(=O)N[C@@H](C)C(=O)N[C@@H](CCCNC(=N)N)C(=O)N[C@@H](CC(C)C)C(=O)N[C@@H](Cc1ccccc1)C(=O)N[C@H](C(=O)N[C@@H](CCC(=O)O)C(=O)N[C@@H](Cc1c[nH]c2ccccc12)C(=O)N[C@@H](CC(C)C)C(=O)NC(C)(C)C(=O)N[C@@H](C)C(=O)NCC(=O)NCC(=O)N1CCC[C@H]1C(=O)N[C@@H](CO)C(=O)N[C@@H](CO)C(=O)NCC(=O)N[C@@H](C)C(=O)N1CCC[C@H]1C(=O)N1CCC[C@H]1C(=O)N1CCC[C@H]1C(=O)N[C@@H](CO)C(N)=O)[C@@H](C)CC)C(=O)O)C(=O)O [SEQ ID NO: 11, H-S-Q-G-T-F-T-S-D-L-S-K-Q-K(γE-γE-x53)-D-E-E-A-A-R-L-F-I-E-W-L-Aib-A-G-G-P-S-S-G-A-P-P-P-S-NH2]	1.2	5.1	560	–	–	–	–	–
CCCCCCCCCCCCCCCCCC(=O)N[C@@H](CCC(=O)NCCCC[C@H](NC(=O)[C@H](CCC(N)=O)NC(=O)[C@H](CCCCN)NC(=O)[C@H](CO)NC(=O)[C@H](CC(C)C)NC(=O)[C@H](CC(=O)O)NC(=O)[C@H](CO)NC(=O)[C@@H](NC(=O)[C@H](Cc1ccccc1)NC(=O)[C@@H](NC(=O)CNC(=O)[C@H](CCC(N)=O)NC(=O)[C@@H](CO)NC(=O)[C@@H](N)Cc1c[nH]cn1)[C@@H](C)O)[C@@H](C)O)C(=O)N[C@@H](CC(=O)O)C(=O)N[C@@H](CCC(=O)O)C(=O)N[C@@H](CCC(=O)O)C(=O)N[C@@H](C)C(=O)N[C@@H](C)C(=O)N[C@@H](CCCNC(=N)N)C(=O)N[C@@H](CC(C)C)C(=O)N[C@@H](Cc1ccccc1)C(=O)N[C@H](C(=O)N[C@@H](CCC(=O)O)C(=O)N[C@@H](Cc1c[nH]c2ccccc12)C(=O)N[C@@H](CC(C)C)C(=O)NC(C)(C)C(=O)N[C@@H](C)C(=O)NCC(=O)NCC(=O)N1CCC[C@H]1C(=O)N[C@@H](CO)C(=O)N[C@@H](CO)C(=O)NCC(=O)N[C@@H](C)C(=O)N1CCC[C@H]1C(=O)N1CCC[C@H]1C(=O)N1CCC[C@H]1C(=O)N[C@@H](CO)C(N)=O)[C@@H](C)CC)C(=O)O [SEQ ID NO: 13, H-dSer-Q-G-T-F-T-S-D-L-S-K-Q-K(γE-x70)-D-E-E-A-A-R-L-F-I-E-W-L-Aib-A-G-G-P-S-S-G-A-P-P-P-S-NH2]	2.7	6.8	2540	–	–	–	–	–
CCCCCCCCCCCCCCCC(=O)N[C@@H](CCC(=O)N[C@@H](CCC(=O)NCCCC[C@H](NC(=O)[C@H](CCC(N)=O)NC(=O)[C@H](CCCCN)NC(=O)[C@H](CO)NC(=O)[C@H](CC(C)C)NC(=O)[C@H](CC(=O)O)NC(=O)[C@H](CO)NC(=O)[C@@H](NC(=O)[C@H](Cc1ccccc1)NC(=O)[C@@H](NC(=O)CNC(=O)[C@H](CCC(N)=O)NC(=O)[C@@H](CO)NC(=O)[C@@H](N)Cc1c[nH]cn1)[C@@H](C)O)[C@@H](C)O)C(=O)N[C@@H](CCC(=O)O)C(=O)N[C@@H](CCC(=O)O)C(=O)N[C@@H](CCC(=O)O)C(=O)N[C@@H](C)C(=O)N[C@@H](C)C(=O)N[C@@H](CCCNC(=N)N)C(=O)N[C@@H](CC(C)C)C(=O)N[C@@H](Cc1ccccc1)C(=O)N[C@H](C(=O)N[C@@H](CCC(=O)O)C(=O)N[C@@H](Cc1c[nH]c2ccccc12)C(=O)N[C@@H](CC(C)C)C(=O)NC(C)(C)C(=O)N[C@@H](C)C(=O)NCC(=O)NCC(=O)N1CCC[C@H]1C(=O)N[C@@H](CO)C(=O)N[C@@H](CO)C(=O)NCC(=O)N[C@@H](C)C(=O)N1CCC[C@H]1C(=O)N1CCC[C@H]1C(=O)N1CCC[C@H]1C(=O)N[C@@H](CO)C(N)=O)[C@@H](C)CC)C(=O)O)C(=O)O [SEQ ID NO: 16, H-dSer-Q-G-T-F-T-S-D-L-S-K-Q-K(γE-γE-x53)-E-E-E-A-A-R-L-F-I-E-W-L-Aib-A-G-G-P-S-S-G-A-P-P-P-S-NH2]	1.8	35.4	7780	–	–	–	–	–
CCCCCCCCCCCCCCCC(=O)N[C@@H](CCC(=O)N[C@@H](CCC(=O)NCCCC[C@H](NC(=O)[C@H](CCC(N)=O)NC(=O)[C@H](CCCCN)NC(=O)[C@H](CO)NC(=O)[C@H](CC(C)C)NC(=O)[C@H](CC(=O)O)NC(=O)[C@H](CO)NC(=O)[C@@H](NC(=O)[C@H](Cc1ccccc1)NC(=O)[C@@H](NC(=O)CNC(=O)[C@H](Cc1c[nH]cn1)NC(=O)[C@@H](CO)NC(=O)[C@@H](N)Cc1c[nH]cn1)[C@@H](C)O)[C@@H](C)O)C(=O)N[C@@H](CC(=O)O)C(=O)N[C@@H](CCC(=O)O)C(=O)N[C@@H](CCC(=O)O)C(=O)N[C@@H](C)C(=O)N[C@@H](C)C(=O)N[C@@H](CCCNC(=N)N)C(=O)N[C@@H](CC(C)C)C(=O)N[C@@H](Cc1ccccc1)C(=O)N[C@H](C(=O)N[C@@H](CCC(=O)O)C(=O)N[C@@H](Cc1c[nH]c2ccccc12)C(=O)N[C@@H](CC(C)C)C(=O)NC(C)(C)C(=O)N[C@@H](CCCCN)C(=O)N[C@H](C)C(=O)NCC(=O)N1CCC[C@H]1C(=O)N[C@@H](CO)C(=O)N[C@@H](CO)C(=O)NCC(=O)N[C@@H](C)C(=O)N1CCC[C@H]1C(=O)N1CCC[C@H]1C(=O)N1CCC[C@H]1C(=O)N[C@@H](CO)C(N)=O)[C@@H](C)CC)C(=O)O)C(=O)O [SEQ ID NO: 26, H-dSer-H-G-T-F-T-S-D-L-S-K-Q-K(γE-γE-x53)-D-E-E-A-A-R-L-F-I-E-W-L-Aib-K-dAla-G-P-S-S-G-A-P-P-P-S-NH2]	2	–	–	92.7	96.6	6800 (≈ 1460 µM)	6700 (≈ 1440 µM)	–
CCCCCCCCCCCCCCCC(=O)N[C@@H](CCC(=O)N[C@@H](CCC(=O)NCCCC[C@H](NC(=O)[C@H](CCC(N)=O)NC(=O)[C@H](CCCCN)NC(=O)[C@H](CO)NC(=O)[C@H](CC(C)C)NC(=O)[C@H](CC(=O)O)NC(=O)[C@H](CO)NC(=O)[C@@H](NC(=O)[C@H](Cc1ccccc1)NC(=O)[C@@H](NC(=O)CNC(=O)[C@H](Cc1c[nH]cn1)NC(=O)[C@@H](CO)NC(=O)[C@@H](N)Cc1c[nH]cn1)[C@@H](C)O)[C@@H](C)O)C(=O)N[C@@H](CCC(=O)O)C(=O)N[C@@H](CCC(=O)O)C(=O)N[C@@H](CCC(=O)O)C(=O)N[C@@H](C)C(=O)N[C@@H](C)C(=O)N[C@@H](CCCNC(=N)N)C(=O)N[C@@H](CC(C)C)C(=O)N[C@@H](Cc1ccccc1)C(=O)N[C@H](C(=O)N[C@@H](CCC(=O)O)C(=O)N[C@@H](Cc1c[nH]c2ccccc12)C(=O)N[C@@H](CC(C)C)C(=O)N[C@@H](CCCCN)C(=O)N[C@@H](C)C(=O)NCC(=O)NCC(=O)N1CCC[C@H]1C(=O)N[C@@H](CO)C(=O)N[C@@H](CO)C(=O)NCC(=O)N[C@@H](C)C(=O)N1CCC[C@H]1C(=O)N1CCC[C@H]1C(=O)N1CCC[C@H]1C(=O)N[C@@H](CO)C(N)=O)[C@@H](C)CC)C(=O)O)C(=O)O [SEQ ID NO: 30, H-dSer-H-G-T-F-T-S-D-L-S-K-Q-K(γE-γE-x53)-EEEAARLFIEWLKAGGPSSGAPPPS-NH2, reference compound]	–	–	–	–	–	–	–	5.1
